Measurements from patent publication US20120129833A1, “CYCLIC KETOENOLS FOR THERAPY” (BAYER PHARMA AKTIENGESELLSCHAFT, priority 2010, published 2012).
pIC50: −log10 of the molar value.

What was measured:
[1] = target: T1, ACC2 (acetyl-CoA carboxylase 2) (Homo sapiens, UniProt O00763); test: Human ACC2 enzyme assay (HTRF ADP detection); format: biochemical; details: 20 μM acetyl-CoA, 15 min pre-incubation, 20 min at 22° C.; read-out: ACC 2 IC50
T1 construct: catalogue no; 50201, amino acids 39—end, expressed in baculovirus-transfected Sf9 insect cells; His (C); purchased BPS Bioscience (San Diego, Calif.) 50201; host or cells: baculovirus-transfected Sf9 insect cells
Procedure: The inhibitory activity of the substances of this invention with regard to acetyl-CoA carboxylase 2 (ACC2) was measured using the ACC2 assay described in the paragraphs below. The basic principle of the assay is the measurement of adenosine diphosphate (ADP), which is formed as a by-product, by means of an HTRF®-based competitive immunoassay (HTRF=Homogeneous Time Resolved Fluorescence).
(§1) The amount of complex of d2-labelled ADP and europium cryptate-labelled anti-ADP antibody was then determined by measuring the resonance energy transfer of europium cryptate to d2.

[2] = target: T2, recombinant human ACC1 (acetyl-CoA carboxylase 1) (Homo sapiens, UniProt Q13085); test: Human ACC1 enzyme assay (HTRF ADP detection); format: biochemical; details: 50 μM ATP, 20 μM acetyl-CoA, 15 min pre-incubation, 20 min at 22° C.; read-out: ACC 1 IC50;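 also: ADP by-product quantified by competitive HTRF immunoassay with europium cryptate anti-ADP antibody and d2-labelled ADP, read after 1 h binding at 22 °C, enzyme near 2.5 ng/µl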
T2 construct: NM_198834, amino acids 39—end; FLAG (C); made in house; host or cells: baculovirus-transfected insect cells (Hi5)
Procedure: The basic principle of the assay is the measurement of adenosine diphosphate (ADP), which is formed as a by-product, by means of an HTRF®-based competitive immunoassay (HTRF=Homogeneous Time Resolved Fluorescence).
as §1

T1 sequence (O00763 39-2458 limits assumed): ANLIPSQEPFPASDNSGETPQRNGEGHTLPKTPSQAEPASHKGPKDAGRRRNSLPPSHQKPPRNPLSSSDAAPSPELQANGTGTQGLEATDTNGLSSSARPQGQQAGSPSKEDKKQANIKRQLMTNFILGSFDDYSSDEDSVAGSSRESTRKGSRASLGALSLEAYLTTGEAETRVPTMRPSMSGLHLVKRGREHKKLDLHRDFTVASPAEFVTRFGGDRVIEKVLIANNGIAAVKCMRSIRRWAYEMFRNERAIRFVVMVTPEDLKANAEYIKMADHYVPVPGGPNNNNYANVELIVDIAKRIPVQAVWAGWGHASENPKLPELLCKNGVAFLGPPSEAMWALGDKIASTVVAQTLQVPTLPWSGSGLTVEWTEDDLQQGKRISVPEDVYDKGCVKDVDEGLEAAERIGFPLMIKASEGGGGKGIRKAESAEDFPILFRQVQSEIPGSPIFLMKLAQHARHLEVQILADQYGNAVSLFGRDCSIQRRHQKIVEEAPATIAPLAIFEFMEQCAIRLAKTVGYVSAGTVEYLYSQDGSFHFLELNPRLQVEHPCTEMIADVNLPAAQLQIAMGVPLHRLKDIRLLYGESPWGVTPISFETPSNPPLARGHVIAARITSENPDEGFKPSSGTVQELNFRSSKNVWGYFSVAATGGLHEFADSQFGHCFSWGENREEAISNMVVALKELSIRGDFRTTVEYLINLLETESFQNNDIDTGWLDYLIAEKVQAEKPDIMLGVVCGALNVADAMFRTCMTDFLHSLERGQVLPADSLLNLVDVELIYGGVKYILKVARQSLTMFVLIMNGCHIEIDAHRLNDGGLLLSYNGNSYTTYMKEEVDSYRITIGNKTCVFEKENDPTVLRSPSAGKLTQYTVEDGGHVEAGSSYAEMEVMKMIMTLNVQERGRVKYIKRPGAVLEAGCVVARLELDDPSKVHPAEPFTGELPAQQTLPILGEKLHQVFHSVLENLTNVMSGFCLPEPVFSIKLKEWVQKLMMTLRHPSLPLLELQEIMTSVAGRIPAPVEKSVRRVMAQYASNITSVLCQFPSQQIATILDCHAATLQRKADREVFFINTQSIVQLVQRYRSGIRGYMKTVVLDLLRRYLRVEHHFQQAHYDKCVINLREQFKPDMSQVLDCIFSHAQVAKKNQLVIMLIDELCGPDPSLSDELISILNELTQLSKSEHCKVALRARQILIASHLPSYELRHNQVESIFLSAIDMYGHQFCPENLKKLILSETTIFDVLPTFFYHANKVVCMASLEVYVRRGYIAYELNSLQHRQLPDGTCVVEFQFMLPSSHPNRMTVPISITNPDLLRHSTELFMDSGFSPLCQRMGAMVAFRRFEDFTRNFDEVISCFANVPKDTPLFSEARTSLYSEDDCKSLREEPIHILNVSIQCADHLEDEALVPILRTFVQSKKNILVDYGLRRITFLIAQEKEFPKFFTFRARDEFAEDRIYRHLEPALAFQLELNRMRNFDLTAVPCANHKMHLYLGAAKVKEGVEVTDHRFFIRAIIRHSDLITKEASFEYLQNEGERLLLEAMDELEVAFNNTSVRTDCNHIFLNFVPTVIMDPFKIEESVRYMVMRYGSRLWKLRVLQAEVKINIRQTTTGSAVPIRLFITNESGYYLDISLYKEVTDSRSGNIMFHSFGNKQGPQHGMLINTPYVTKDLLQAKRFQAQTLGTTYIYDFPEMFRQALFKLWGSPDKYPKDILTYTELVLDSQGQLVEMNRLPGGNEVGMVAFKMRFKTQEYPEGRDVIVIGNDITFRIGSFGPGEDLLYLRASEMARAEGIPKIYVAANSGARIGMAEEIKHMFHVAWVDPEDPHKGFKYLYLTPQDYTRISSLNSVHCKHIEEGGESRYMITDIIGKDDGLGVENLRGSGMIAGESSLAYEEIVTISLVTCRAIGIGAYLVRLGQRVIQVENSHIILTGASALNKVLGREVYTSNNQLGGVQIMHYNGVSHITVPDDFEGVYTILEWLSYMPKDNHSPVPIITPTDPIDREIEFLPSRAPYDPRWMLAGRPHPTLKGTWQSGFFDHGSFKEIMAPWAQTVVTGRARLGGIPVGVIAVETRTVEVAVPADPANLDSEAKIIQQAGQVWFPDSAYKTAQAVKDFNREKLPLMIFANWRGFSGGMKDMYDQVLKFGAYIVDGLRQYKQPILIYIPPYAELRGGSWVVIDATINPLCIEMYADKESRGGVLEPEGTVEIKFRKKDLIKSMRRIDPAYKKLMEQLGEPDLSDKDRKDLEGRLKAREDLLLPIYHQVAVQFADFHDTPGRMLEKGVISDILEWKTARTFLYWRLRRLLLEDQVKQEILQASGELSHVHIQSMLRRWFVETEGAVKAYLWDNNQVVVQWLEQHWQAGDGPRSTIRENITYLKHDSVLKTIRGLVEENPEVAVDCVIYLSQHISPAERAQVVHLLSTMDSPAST

pIC50 [1]	pIC50 [2]	Structure (SMILES)
6.72	6.35	CCOC1CCC2(CC1)NC(=O)C(c1cc(-c3ccc(Cl)cc3)ccc1C)=C2O (stereo not shown) [Example 1-28, 3-(4′-chloro-4-methylbiphenyl-3-yl)-8-ethoxy-4-hydroxy-1-azaspiro[4.5]dec-3-en-2-one]
< 4.70	6.04	O=C1C(c2cc(-c3ccc(Cl)cc3)ccc2Cl)C(=O)N2C3CCC(C3)N12 (stereo not shown) [Example 8-17, 2-(4,4′-dichlorobiphenyl-3-yl)tetrahydro-1H-5,8-methanopyrazolo[1,2-a]pyridazine-1,3(2H)-dione]
5.47	6.32	COCCC1CCCC2(C1)OC(=O)C(c1cc(-c3ccc(Cl)cc3)ccc1C)=C2O (stereo not shown) [Example 2-18, 3-(4′-chloro-4-methylbiphenyl-3-yl)-4-hydroxy-7-(2-methoxyethyl)-1-oxaspiro[4.5]dec-3-en-2-one]
5.71	6.86	COCC1CCC2(CC1)OC(=O)C(c1cc(-c3ccc(Cl)cc3)ccc1C)=C2O (stereo not shown) [Example 2-20, 3-(4′-chloro-4-methylbiphenyl-3-yl)-4-hydroxy-8-(methoxymethyl)-1-oxaspiro[4.5]dec-3-en-2-one]
5.25	5.79	Cc1ccc(-c2ccc(Cl)cc2)cc1C1=C(O)C(C)(C)C(C)(C)NC1=O [Example 9-14, 3-(4′-chloro-4-methylbiphenyl-3-yl)-4-hydroxy-5,5,6,6-tetramethyl-5,6-dihydropyridin-2(1H)-one]
5.43	5.43	Cc1cc(C)c(-c2ccc(Cl)cc2)cc1C1=C(O)C(C)(C)CCC1=O [Example 7-4, 2-(4′-chloro-4,6-dimethylbiphenyl-3-yl)-3-hydroxy-4,4-dimethylcyclohex-2-en-1-one]
4.74	6.11	Cc1ccc(-c2ccc(C(F)(F)F)cc2)cc1C1=C(O)C2(CCCCC2)NC1=O [Example 1-12, 4-hydroxy-3-[4-methyl-4′-(trifluoromethyl)biphenyl-3-yl]-1-azaspiro[4.5]dec-3-en-2-one]
5.37	5.97	Cc1ccc(-c2ccc(Cl)cc2)cc1C1=C(O)C2(CCCCC2)CNC1=O [Example 9-3, 4-(4′-chloro-4-methylbiphenyl-3-yl)-5-hydroxy-2-azaspiro[5.5]undec-4-en-3-one]
5.90	6.27	Cc1ccc(-c2ccc(Cl)cc2)cc1C1=C(O)C2(CCCCCC2)NC1=O [Example 1-26, 3-(4′-chloro-4-methylbiphenyl-3-yl)-4-hydroxy-1-azaspiro[4.6]undec-3-en-2-one]
5.82	6.72	Cc1ccc(-c2ccc(Cl)cc2)c(C)c1C1=C(O)C2(CCCCC2)OC1=O [Example 2-4, 3-(4′-chloro-2,4-dimethylbiphenyl-3-yl)-4-hydroxy-1-oxaspiro[4.5]dec-3-en-2-one]
4.85	6.07	Cc1ccc(-c2ccc(F)cc2)cc1C1=C(O)C2(CCC(OCC(F)(F)F)CC2)NC1=O (stereo not shown) [Example 1-32, 3-(4′-fluoro-4-methylbiphenyl-3-yl)-4-hydroxy-8-(2,2,2-trifluoroethoxy)-1-azaspiro[4.5]dec-3-en-2-one]
6.11	6.03	CCCC1CCC2(CC1)CC(=O)C(c1cc(-c3ccc(Cl)cc3)ccc1C)=C2O (stereo not shown) [Example 6-6, 3-(4′-chloro-4-methylbiphenyl-3-yl)-4-hydroxy-8-propylspiro[4.5]dec-3-en-2-one]
6.09	6.10	Cc1cc(C)c(-c2ccc(Cl)cc2)cc1C1=C(O)C2(CCCOC2)NC1=O (stereo not shown) [Example 1-8, 3-(4′-chloro-4,6-dimethylbiphenyl-3-yl)-4-hydroxy-7-oxa-1-azaspiro[4.5]dec-3-en-2-one]
< 4.70	6.38	Cc1ccc(-c2ccc(Cl)cc2)cc1-c1c(O)c2ccc(F)cc2[nH]c1=O [Example 9-8, 3-(4′-chloro-4-methylbiphenyl-3-yl)-7-fluoro-4-hydroxyquinolin-2(1H)-one]
6.33	6.04	COCCC1CCCC2(C1)NC(=O)C(c1c(C)ccc(-c3ccc(Cl)cc3)c1C)=C2O (stereo not shown) [Example 1-55, 3-(4′-chloro-2,4-dimethylbiphenyl-3-yl)-4-hydroxy-7-(2-methoxyethyl)-1-azaspiro[4.5]dec-3-en-2-one]
5.60	6.85	Cc1ccc(-c2ccc(F)cc2)cc1C1=C(O)[C@]2(CC[C@@]3(CCCO3)CC2)OC1=O [Example 2-28, (5r,8s)-3-(4′-fluoro-4-methylbiphenyl-3-yl)-4-hydroxy-1,9-dioxadispiro[4.2.4.2]tetradec-3-en-2-one]
< 4.70	6.08	Cc1ccc(-c2ccc(F)c(F)c2)cc1C1=C(O)C2(CCCC2)OC1=O [Example 2-22, 3-(3′,4′-difluoro-4-methylbiphenyl-3-yl)-4-hydroxy-1-oxaspiro[4.4]non-3-en-2-one]
< 4.70	6.33	Cc1ccc(-c2ccc(Cl)cc2)cc1C1=C(O)CN(CC(C)C)C1=O [Example 1-27, 3-(4′-chloro-4-methylbiphenyl-3-yl)-4-hydroxy-1-(2-methylpropyl)-1,5-dihydro-2H-pyrrol-2-one]
5.26	6.48	O=c1[nH]c2cc(Cl)ccc2c(O)c1-c1cc(-c2ccc(Cl)cc2)ccc1Cl [Example 9-13, 7-chloro-3-(4,4′-dichlorobiphenyl-3-yl)-4-hydroxyquinolin-2(1H)-one]
5.47	6.31	Cc1ccc(-c2ccc(Cl)cc2)cc1C1=C(O)C2(Cc3ccccc3C2)NC1=O [Example 1-25, 4′-(4′-chloro-4-methylbiphenyl-3-yl)-3′-hydroxy-1,3-dihydrospiro[indene-2,2′-pyrrol]-5′(1′H)-one]
6.27	6.44	Cc1ccc(-c2ccc(Cl)cc2)cc1C1=C(O)C2(CCC(OCC(F)(F)F)CC2)NC1=O (stereo not shown) [Example 1-33, 3-(4′-chloro-4-methylbiphenyl-3-yl)-4-hydroxy-8-(2,2,2-trifluoroethoxy)-1-azaspiro[4.5]dec-3-en-2-one]
< 4.70	5.94	Cc1ccc(-c2ccc(Cl)cc2)cc1C1C(=O)N2CCCCN2C1=O [Example 8-3, 2-(4′-chloro-4-methylbiphenyl-3-yl)tetrahydro-1H-pyrazolo[1,2-a]pyridazine-1,3(2H)-dione]
5.77	6.47	Cc1ccc(-c2ccc(Cl)cc2Cl)cc1C1=C(O)C2(CCCCC2)CC1=O [Example 6-2, 3-(2′,4′-dichloro-4-methylbiphenyl-3-yl)-4-hydroxyspiro[4.5]dec-3-en-2-one]

Structure (SMILES)	pIC50 [1]	pIC50 [2]
Cc1cc(C)c(-c2ccc(Cl)cc2)c(C)c1C1=C(O)C2(CCCCC2)SC1=O [Example 3-4, 3-(4′-chloro-2,4,6-trimethylbiphenyl-3-yl)-4-hydroxy-1-thiaspiro[4.5]dec-3-en-2-one]	6.64	5.88
Cc1ccc(-c2ccc(Cl)cc2)cc1C1C(=O)N(C)OC(C)(C)C1=O (stereo not shown) [Example 11-1, 4-(4′-chloro-4-methylbiphenyl-3-yl)-2,6,6-trimethyl-1,2-oxazinane-3,5-dione]	< 4.70	5.40
Cc1ccc(-c2ccc(Cl)cc2)cc1C1=C(O)C2(CCC3(CC2)OCC(C)O3)NC1=O (stereo not shown) [Example 1-63, 11-(4′-chloro-4-methylbiphenyl-3-yl)-12-hydroxy-2-methyl-1,4-dioxa-9-azadispiro[4.2.4.2]tetradec-11-en-10-one]	5.38	6.41
Cc1ccc(-c2ccc(Cl)cc2)cc1C1=C(O)C2(CCC3(CC2)OCCO3)NC1=O [Example 1-60, 11-(4′-chloro-4-methylbiphenyl-3-yl)-12-hydroxy-1,4-dioxa-9-azadispiro[4.2.4.2]tetradec-11-en-10-one]	5.63	6.63
COCCC1CCC2(CC1)NC(=O)C(c1c(C)ccc(-c3ccc(Cl)cc3)c1C)=C2O (stereo not shown) [Example 1-57, 3-(4′-chloro-2,4-dimethylbiphenyl-3-yl)-4-hydroxy-8-(2-methoxyethyl)-1-azaspiro[4.5]dec-3-en-2-one]	6.66	6.10
Cc1ccc(-c2ccc(Cl)cc2)cc1C1=C(O)C2(CCCCC2)NC1=O [Example 1-77, 3-(4′-chloro-4-methylbiphenyl-3-yl)-4-hydroxy-1-azaspiro[4.5]dec-3-en-2-one]	6.07	6.49
CC1(C)OC(=O)C(c2cc(-c3ccc(Cl)cc3)ccc2Cl)=C(O)C1(C)C [Example 10-1, 3-(4,4′-dichlorobiphenyl-3-yl)-4-hydroxy-5,5,6,6-tetramethyl-5,6-dihydro-2H-pyran-2-one]	< 4.70	5.86
Cc1ccc(-c2ccc(Cl)cc2)cc1C1=C(O)C2(CCOC(C)C2)NC1=O (stereo not shown) [Example 1-3, 3-(4′-chloro-4-methylbiphenyl-3-yl)-4-hydroxy-7-methyl-8-oxa-1-azaspiro[4.5]dec-3-en-2-one]	5.27	6.35
Cc1ccc(-c2ccc(Cl)cc2)c(C)c1C1=C(O)C2(CCCOC2)NC1=O (stereo not shown) [Example 1-10, 3-(4′-chloro-2,4-dimethylbiphenyl-3-yl)-4-hydroxy-7-oxa-1-azaspiro[4.5]dec-3-en-2-one]	5.19	6.26
COC1CCC2(CC1)NC(=O)C(c1c(C)cc(OC(F)(F)F)cc1Cl)=C2O (stereo not shown) [Example C-3, reference compound]	< 4.70	< 4.70
CCc1cc(-c2ccccc2)cc(Cl)c1C1C(=O)N2CCOCCN2C1=O [Example C-1, reference compound]	< 4.70	< 4.70
COCC1CCC2(CC1)NC(=O)C(c1cc(-c3ccc(Cl)cc3)ccc1C)=C2O (stereo not shown) [Example 1-56, 3-(4′-chloro-4-methylbiphenyl-3-yl)-4-hydroxy-8-(methoxymethyl)-1-azaspiro[4.5]dec-3-en-2-one]	6.49	6.37
